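These data come from cells grown in 96-well plates and exposed to compound for 48 hours at five concentrations. At the GI50, growth is halved. The concentration for full growth arrest is given as TGI.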
Experiments:
Experiment in all cases: inhibition of tumour cell growth, NCI panel, 48 h
[1] = tested on: ACHN renal
[2] = tested on: BT-549 breast
[3] = tested on: EKVX NSCLC
[4] = tested on: HCC-2998 colon
[5] = tested on: KM12 colon
[6] = tested on: LOX IMVI melanoma
[7] = tested on: M14 melanoma
[8] = tested on: NCI-H460 lung
[9] = tested on: SF-268 CNS
[10] = tested on: SF-295 CNS
[11] = tested on: T-47D breast
[12] = tested on: TK-10 renal
[13] = tested on: UACC-257 melanoma

Row | SMILES | TGI [1] [µM] | TGI [2] [µM] | TGI [3] [µM] | TGI [4] [µM] | TGI [5] [µM] | TGI [6] [µM] | TGI [7] [µM] | TGI [8] [µM] | TGI [9] [µM] | TGI [10] [µM] | TGI [11] [µM] | TGI [12] [µM] | TGI [13] [µM] | GI50 [8] [µM] | GI50 [10] [µM]
1 | CCN(CC)c1ccc2cc(-c3csc(C)n3)c(=O)oc2c1 | > 100 | > 100 | > 100 | > 100 | > 100 | > 100 | > 100 | > 100 | > 100 | > 100 | > 100 | > 100 | > 100 |  | 
2 | CC(C)=CC[C@H]1C[C@@]2(CC=C(C)C)C(=O)/C(=C(/O)c3ccccc3)C(=O)[C@](CC=C(C)C)(C2=O)C1(C)C | 21.8 | 35 | 20 | 14.4 | 19.9 | 17 | 25.2 | 11.5 | 39.4 | 17.8 | 35.2 | 20.6 | 19.7 |  | 
3 | Cc1c(-c2ccccc2)c(C#N)c2nnn(C)c(=O)n12 | > 100 | > 100 | > 100 | > 100 | > 100 | > 100 | > 100 | > 100 | > 100 | > 100 | > 100 | > 100 | > 100 |  | 
4 | COc1cc(OC)c2nc(C)c3c(c2c1)OCC3 | > 100 | > 100 | > 100 | > 100 | > 100 | > 100 | > 100 | > 100 | > 100 | > 100 | > 100 | > 100 | > 100 |  | 
5 | O=C(/N=C1/OC(CN2CCOCC2)CN1C(=O)Nc1ccccc1)Nc1ccccc1 (stereo not given) | > 100 | > 100 | > 100 | > 100 | > 100 | > 100 | > 100 | > 100 | > 100 | > 100 | > 100 | > 100 | > 100 |  | 
6 | Cc1ccc(/C=C2\CCCCCC2=O)cc1 | > 100 | > 100 | > 100 | > 100 | > 100 | > 100 | > 100 | > 100 | > 100 | > 100 | > 100 | > 100 | > 100 |  | 
7 | CCC1(CC)C(=O)NN(C(=O)c2ccc(Cl)cc2)C1=O | > 100 | > 100 | > 100 | > 100 | > 100 | > 100 | > 100 | > 100 | > 100 | > 100 | > 100 | > 100 | > 100 |  | 
8 | N/N=C(/CC(O)(C(F)(F)F)C(F)(F)F)c1ccccc1 | > 10 | > 10 | > 10 | > 10 | > 10 | > 10 | > 10 | > 10 | > 10 | > 10 | > 10 | > 10 | > 10 |  | 
9 | COc1cc(/C=C2\CC(C)C/C(=C\c3ccc(O)c(OC)c3)C2=O)ccc1O (stereo not given) | 10.2 | 12.3 | 28.1 | 12.5 | 3.86 | 5.79 | 8.22 | 9.45 | 20.7 | 29.8 | 4.5 | 15.8 | 9.08 |  | 
10 | O=c1cc(-c2ccc3ccccc3c2)[nH]c2ncccc12 | > 100 | > 100 | > 100 | > 100 | > 100 | > 100 | > 100 | > 100 | > 100 | > 100 | > 100 | > 100 | > 100 | 3.79 | 9.19
11 | CC1=NN(C(=O)CC(=O)Nc2ccc(Cl)cc2)C(=O)C1N=Nc1ccc(S(=O)(=O)c2ccc(N=NC3C(=O)N(C(=O)CC(=O)Nc4ccc(Cl)cc4)N=C3C)cc2)cc1 (stereo not given) | > 100 | > 100 | > 100 | > 100 | > 100 | > 100 | > 100 | > 100 | > 100 | > 100 | > 100 | 79.1 | > 100 |  | 
12 | COC(=O)/C=C/C(=O)Nc1cc(Cl)c(Cl)cc1CC(=O)N(C)[C@H]1CCCC[C@@H]1N1CCCC1 | 14.6 | 26.8 | 29.2 | 21.2 | > 56 | 24.4 | 32.3 | 31.9 | 35.5 | 36.2 | 28.5 | 11.1 | 13 |  | 
13 | CCOC(=O)CON=c1c2ccccc2ccc2ccccc12 | > 100 | > 100 | > 100 | > 100 | > 100 | > 100 | > 100 | > 100 | > 100 | > 100 | > 100 | > 100 | > 100 |  | 
14 | O=C1OC(C2Cc3ccc4c(c3C2=O)CCCC4)c2ccccc21 (stereo not given) | > 100 | > 100 | > 100 | 94.6 | > 100 | > 100 | > 100 | > 100 | > 100 | > 100 | > 100 | > 100 | > 100 |  | 
15 | COc1ccc(OC2OC(CO)C(O)C(O)C2O)cc1 (stereo not given) | > 100 | > 100 | > 100 | > 100 | > 100 | > 100 | > 100 | > 100 | > 100 | > 100 | > 100 | > 100 | > 100 |  | 
16 | O=S1(=O)c2ccccc2-c2nccc3ccnc1c23 | 85.3 | 35.4 | > 100 | 28.6 | > 100 | > 100 | > 100 | 76.1 | > 100 | > 100 | > 100 | > 100 | > 100 |  | 
